According to patent US20240252660A1, “CARGO MOLECULE TRANSDUCTION DOMAIN RMMR1, VARIANT THEREOF, RECOMBINANT CARGO MOLECULE, AND METHOD FOR TRANSDUCING CARGO MOLECULE USING SAME” (REMEDI CO., LTD., priority 2021, published 2024):
Where no end group is shown, it is not given here.

How the values were obtained:
Assay type in all cases: cell-based
cells = assay: FACS experiment to verify self-penetration efficacy of FITC peptides (summary statement); details: FITC-labelled peptide, cells not specified
Description: The present inventors synthesized FITC and conducted a FACS experiment to verify its self-penetration efficacy using the cell-penetrating peptide RMMR1 derived from the human MRPL15 protein.

RAW264.7 cells = assay: Antigen-presenting cell penetration efficiency of FITC-attached peptide; details: 2.5 uM, 2 hours, FITC fluorescence
Method: (§1) HaCaT, 3T3, and B16F10 cells were cultured in cell culture medium supplemented with 10% of fetal bovine serum (FBS) and antibiotic solution (100 units/ml of penicillin, 100 μg/ml of streptomycin) in DMEM medium. Cells were cultured under conditions maintained at 37° C., 95% humidity, and 5% CO2, and when the cells were 70-80% adhered to the culture dish, they were treated with trypsin-EDTA and subcultured. HaCaT cells were distributed and cultured from Professor Kim Tae Yoon of the College of Medicine, The Catholic University of Korea, 3T3 and B16F10 cells were distributed and cultured from the Seoul National University Cell Line Bank. RAW264.7 cells were distributed and cultured from the laboratory of Professor Kim Sang-Beom, College of Pharmacy, Sahmyook University.
In order to identify the penetration efficiency of RMMR1 into antigen-presenting cells, the transduction efficiency was confirmed using cell line RAW264.7 using a synthetic peptide attached with fluorescent FITC. In the case of cells without FITC attached, it is difficult to identify the permeability of the peptide, so attaching fluorescent FITC makes it easier to identify cell permeability. Each cell line was treated with FITC-attached peptides RMMR1-FITC (SEQ. NO. 1) and TAT-FITC at the same concentration of 2.5 uM for 2 hours.

B16F10 cells = assay: RMMR1-FITC synthetic peptide cell penetration efficiency (fluorescence value) in B16F10; details: 2.5 uM, 2 hours
Method: as §1
(§2) In order to evaluate the cell permeability of RMMR1 in HaCaT, 3T3, B16F10 cells, 1×10^5 of HaCaT cells were attached to a 24-well plate 12 hours in advance. Thereafter, the cells were washed using serum-free DMEM medium and then treated with 2.5 uM of protein in serum-free medium for 2 hours. After 2 hours, the cells were washed a total of 3 times with serum-free medium, and then the cells were detached from the plate by treatment with 150 ul of trypsin, and then neutralized by adding 850 ul of serum-containing medium. […]

3T3 cells = assay: RMMR1-FITC synthetic peptide cell penetration efficiency (fluorescence value) in 3T3; details: 2.5 uM, 2 hours
Method: as §1, §2

“ERRPRGRRRGRKC (listed as Homo sapiens) [RMMR1, 13 amino acid cargo molecule transduction domain derived from human MRPL15]” was tested, and the “cell penetration compared with HIV-Tat peptide (FITC, FACS)” value (cells) was “penetrated cells much better than the HIV-Tat peptide”.

“RMMR1-FITC: RMMR1 (SEQ ID NO: 1) synthetic peptide attached with fluorescent FITC (ERRPRGRRRGRKC; also: FITC label, attachment site not given here; listed as Homo sapiens)” was tested, and the “level of cell penetration compared with control TAT-FITC peptide” value (RAW264.7 cells) was “higher level of cell penetration compared to the control TAT-FITC peptide”, the “cell penetration level compared with control TAT-FITC peptide” value (B16F10 cells) was “significantly higher cell penetration level than the control TAT-FITC peptide” and the “cell penetration level compared with control TAT-FITC peptide” value (3T3 cells) was “significantly higher cell penetration level than the control TAT-FITC peptide”.
